# Assay results published in patent US20230391778A1, “INDOLIN-2-ONE OR PYRROLO -PYRIDIN -2 -ONE DERIVATIVES” (Hoffmann-La Roche Inc., priority 2014, published 2023).
# Test system: L-687,414-induced hyperlocomotion
# Assay: L-687,414-induced hyperlocomotion
# Type: in vivo, mouse
# Settings: Dose ip 30 mg/kg, mice, 50 mg/kg s.c. L-687,414
# Protocol: The described compounds of formula I reduce L-687,414-induced hyperlocomotion. This was assessed by using a computerized Digiscan 16 Animal Activity Monitoring System (Omnitech Electronics, Columbus, Ohio) to quantify locomotor activity. Animals were kept under a 12 h light/dark cycle and experiments were performed during the light period. Each activity monitoring chamber consisted of a Plexiglas box (41×41×28 cm; W×L×H) with sawdust bedding on the floor surrounded by invisible horizontal and vertical infrared sensor beams. The test boxes were divided by a Plexiglas cross providing each mouse with 20×20 cm of moving space. Cages were connected to a Digiscan Analyzer linked to a computer that constantly collected the beam status information. Records of photocell beam interruptions for individual animals were taken every 5 min over the duration of the experimental session and the sum of the first 6 periods was used as the final parameter. At least 8 mice were used in each treatment group. Compounds were administered either p.o. 15 min before a s.c. injection of 50 mg/kg of L-687,414, or i.p. at the same time as a s.c. injection of 50 mg/kg of L-687,414. Mice were then transferred from their home cage to the recording chambers for a 15-min habituation phase allowing free exploration of the new environment. Horizontal activity was then recorded for a 30-min time period. The % inhibition of L-687,414-induced hyperlocomotion was calculated according to the equation:
# ((Veh+L-687,414 horizontal activity−drug+L-687,414 horizontal activity)/Veh+L-687,414 horizontal activity)×100
# ID50 values, defined as doses of each compound producing 50% inhibition of L-687,414-induced hyperlocomotion, were calculated by linear regression analysis of a dose-response data using an Excel-based computer-fitting program.
# As data was not presupposed to be normally distributed, groups treated with test compounds were statistically compared with the control (vehicle-treated) group using one-tailed Mann Whitney U tests. In statistics, the Mann-Whitney U test (also called the Mann-Whitney-Wilcoxon (MWW) or Wilcoxon rank-sum test) is a non-parametric statistical hypothesis test for assessing whether one of two samples of independent observations tends to have larger values than the other. It is one of the most well-known non-parametric significance tests. […] P values given in table 1 are one-tailed since only decreases in locomotion were expected and tested for (Mann, H. B., Whitney, D. R. (1947), “On a Test of Whether one of Two Random Variables is Stochastically Larger than the Other”, Annals of Mathematical Statistics, 18 (1), 50-60).
row,Compound,"L-687,414-induced hyperlocomotion Inhibition, ip [%]"
1,"1-(2-cyclopropylpyrimidin-5-yl)-3,3-dimethyl-6-(2-methylpyrimidin-5-yl)indolin-2-one [Example 116]",92.8

# Same assay, conditions: Mus musculus; Dose ip 30 mg/kg, mice, 50 mg/kg s.c. L-687,414
row,Compound,inhibition in vivo at 30 mg/kg [%]
1,"Cc1ncc(-c2cc3c(cn2)C(C)(C)C(=O)N3c2ccn(C)n2)cn1 [Example 16, 3,3-Dimethyl-1-(1-methyl-1H-pyrazol-3-yl)-6-(2-methylpyrimidin-5-yl)-1H-pyrrolo[3,2-c]pyridin-2(3H)-one]",78.3
2,"Cc1cc(N2C(=O)C(C)(C)c3ccc(-n4cnc(C)c4)cc32)ccn1 [Example 22, 3,3-Dimethyl-6-(4-methylimidazol-1-yl)-1-(2-methyl-4-pyridyl)indolin-2-one]",63.8
3,"Cc1ccc(N2C(=O)C(C)(C)c3ccc(-c4nnc(C)o4)cc32)cn1 [Example 34, 3,3-Dimethyl-6-(5-methyl-1,3,4-oxadiazol-2-yl)-1-(6-methyl-3-pyridyl)indolin-2-one]",59.7
4,"Cc1ncc(-c2ccc3c(c2)N(c2ccn(C)n2)C(=O)C3(C)C)o1 [Example 49, 3,3-Dimethyl-6-(2-methyloxazol-5-yl)-1-(1-methylpyrazol-3-yl)indolin-2-one]",47.1
5,"Cc1ncc(-c2ccc3c(c2)N(c2nc(C)n(C)n2)C(=O)C3(C)C)cn1 [Example 78, 1-(1,5-dimethyl-1H-1,2,4-triazol-3-yl)-3,3-dimethyl-6-(2-methylpyrimidin-5-yl)indolin-2-one]",89.9
6,"Cc1ncc(-c2ccc3c(c2)N(c2ncn(C)n2)C(=O)C3(C)C)cn1 [Example 82, 3,3-dimethyl-1-(1-methyl-1H-1,2,4-triazol-3-yl)-6-(2-methylpyrimidin-5-yl)indolin-2-one]",89.6
7,"Cc1ncc(-c2ccc3c(c2)N(c2ccncn2)C(=O)C3(C)C)cn1 [Example 93, 3,3-dimethyl-6-(2-methylpyrimidin-5-yl)-1-(pyrimidin-4-yl)indolin-2-one]",92.4
8,"Cc1cc(-c2cc3c(cn2)C(C)(C)C(=O)N3c2ccc(C)nn2)ccn1 [Example 109, 3,3-dimethyl-1-(6-methylpyridazin-3-yl)-6-(2-methylpyridin-4-yl)-1H-pyrrolo[3,2-c]pyridin-2(3H)-one]",51.3
9,"Cc1cc(-c2cc3c(cn2)C(C)(C)C(=O)N3c2cnn(C)c2)ccn1 [Example 110, 3,3-dimethyl-1-(1-methyl-1H-pyrazol-4-yl)-6-(2-methylpyridin-4-yl)-1H-pyrrolo[3,2-c]pyridin-2(3H)-one]",58.5
10,"Cc1cc(-c2cc3c(cn2)C(C)(C)C(=O)N3c2cn(C)cn2)ccn1 [Example 111, 3,3-dimethyl-1-(1-methyl-1H-imidazol-4-yl)-6-(2-methylpyridin-4-yl)-1H-pyrrolo[3,2-c]pyridin-2(3H)-one]",51

# Target: T1, mouse ENT-1 transporter (Mus musculus, UniProt Q9JIM1)
# T1 construct: expressed in transfected cells
# T1 sequence (Q9JIM1 1-460): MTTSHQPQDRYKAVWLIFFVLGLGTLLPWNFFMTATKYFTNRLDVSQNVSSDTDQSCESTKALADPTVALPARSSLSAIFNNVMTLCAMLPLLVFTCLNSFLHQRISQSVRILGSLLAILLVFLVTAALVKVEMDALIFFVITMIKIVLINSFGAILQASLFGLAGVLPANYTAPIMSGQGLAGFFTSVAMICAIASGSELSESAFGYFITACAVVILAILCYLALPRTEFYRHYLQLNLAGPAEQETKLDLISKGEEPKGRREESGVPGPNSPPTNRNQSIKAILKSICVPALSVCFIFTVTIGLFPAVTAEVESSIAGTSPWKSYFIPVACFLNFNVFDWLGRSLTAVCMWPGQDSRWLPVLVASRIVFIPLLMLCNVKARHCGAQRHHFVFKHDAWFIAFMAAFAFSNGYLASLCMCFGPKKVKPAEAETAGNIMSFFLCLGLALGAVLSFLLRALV
# Assay: Measure of adenosine transport activity (ENT1 adenosine uptake inhibition)
# Type: cell-based
# Settings: stable cells expressing mouse ENT-1, [2,8-3H]-adenosine 6 nM, 20 min
# Protocol: To measure adenosine transport activity of ENT-1 mammalian cells, stable cells expressing the mouse ENT-1 transporter were plated on day 1 in 96-well culture plates at the density of 60,000 cells/well, in complete DMEM/F12 medium supplemented with glutamax, 10% FBS and 10 μg/ml puromycin. On day 2, the medium was aspirated and the cells were washed twice with uptake buffer (10 mM Hepes-Tris, pH 7.4 containing 150 mM NaCl, 1 mM CaCl2), 2.5 mM KCl, 2.5 mM MgSO4, 10 mM D-glucose) (UB). For inhibition experiments, cells were then incubated at RT with various concentrations of compounds with 1% DMSO final. Non-specific uptake was defined in the presence of 10 μM S-(4-Nitrobenzyl)-6-thioinosine (NBTI, Sigma Cat #N2255).
# The plates were then incubated for 20 min with gentle shaking and the reaction was stopped by aspiration of the mixture and washing (three times) with ice-cold UB. The cells were lysed by the addition of scintillation liquid, shaken 3 hours and the radioactivity in the cells was estimated using a microplates scintillation counter (TopCount NXT, Packard).
row,Compound,IC50 [nM]
1,"1-(2-cyclopropylpyrimidin-5-yl)-3,3-dimethyl-6-(2-methylpyrimidin-5-yl)indolin-2-one [Example 116]",230
2,"Cc1cccc(-c2ccc3c(c2)N(c2cncc(C)n2)C(=O)C3(C)C)n1 [Example 135, 3,3-dimethyl-1-(6-methylpyrazin-2-yl)-6-(6-methyl-2-pyridyl)indolin-2-one]",2280
3,"Cc1cnc(-c2ccc3c(c2)N(c2ccc(C)nn2)C(=O)C3(C)C)cn1 [Example 137, 3,3-dimethyl-6-(5-methylpyrazin-2-yl)-1-(6-methylpyridazin-3-yl)indolin-2-one]",4070
4,"Cc1cnc(-c2ccc3c(c2)N(c2ccn(C)n2)C(=O)C3(C)C)cn1 [Example 138, 3,3-dimethyl-1-(1-methyl-1H-pyrazol-3-yl)-6-(5-methylpyrazin-2-yl)indolin-2-one]",5790
5,"Cc1ncc(-c2ccc3c(c2)N(c2cncc(F)c2)C(=O)C3(C)C)cn1 [Example 142, 1-(5-fluoropyridin-3-yl)-3,3-dimethyl-6-(2-methylpyrimidin-5-yl)indolin-2-one]",765
6,"Cc1ncc(-c2ccc3c(c2)N(c2cncc(C#N)c2)C(=O)C3(C)C)cn1 [Example 143, 5-(3,3-dimethyl-6-(2-methylpyrimidin-5-yl)-2-oxoindolin-1-yl)nicotinonitrile]",70
7,"Cc1cc(-c2ccc3c(c2)N(c2cncc(C)n2)C(=O)C3(C)C)ccn1 [Example 144, 3,3-dimethyl-1-(6-methylpyrazin-2-yl)-6-(2-methyl-4-pyridyl)indolin-2-one]",3510

# The next lines start with the values.
row,IC50 [nM],Compound
1,337,"Cc1cncc(-c2ccc3c(c2)N(c2cncc(C)n2)C(=O)C3(C)C)c1 [Example 145, 3,3-dimethyl-1-(6-methylpyrazin-2-yl)-6-(5-methyl-3-pyridyl)indolin-2-one]"
2,2130,"Cc1cncc(N2C(=O)C(C)(C)c3ccc(-c4cncc(F)c4)cc32)n1 [Example 146, 6-(5-fluoro-3-pyridyl)-3,3-dimethyl-1-(6-methylpyrazin-2-yl)indolin-2-one]"
3,9000,"Cc1cnc(N2C(=O)C(C)(C)c3ccc(-c4ccnc(C)c4)cc32)cn1 [Example 147, 3,3-dimethyl-1-(5-methylpyrazin-2-yl)-6-(2-methyl-4-pyridyl)indolin-2-one]"
4,402,"Cc1ccc(-c2ccc3c(c2)N(c2cnc(C)cn2)C(=O)C3(C)C)cn1 [Example 148, 3,3-dimethyl-1-(5-methylpyrazin-2-yl)-6-(6-methyl-3-pyridyl)indolin-2-one]"
5,207,"Cc1cncc(-c2ccc3c(c2)N(c2cnc(C)cn2)C(=O)C3(C)C)c1 [Example 149, 3,3-dimethyl-1-(5-methylpyrazin-2-yl)-6-(5-methyl-3-pyridyl)indolin-2-one]"
6,1480,"Cc1cnc(N2C(=O)C(C)(C)c3ccc(-c4cncc(F)c4)cc32)cn1 [Example 150, 6-(5-fluoro-3-pyridyl)-3,3-dimethyl-1-(5-methylpyrazin-2-yl)indolin-2-one]"
7,37,"Cc1cnc(N2C(=O)C(C)(C)c3ccc(-c4cnc(C)c(F)c4)cc32)cn1 [Example 151, 6-(5-fluoro-6-methyl-3-pyridyl)-3,3-dimethyl-1-(5-methylpyrazin-2-yl)indolin-2-one]"
8,317,"Cc1ncc(-c2ccc3c(c2)N(c2cncc(C(F)(F)F)c2)C(=O)C3(C)C)cn1 [Example 152, 3,3-dimethyl-6-(2-methylpyrimidin-5-yl)-1-(5-(trifluoromethyl)pyridin-3-yl)indolin-2-one]"
9,291,"Cc1ncc(-c2ccc3c(c2)N(c2cncc(CO)c2)C(=O)C3(C)C)cn1 [Example 153, 1-(5-(hydroxymethyl)pyridin-3-yl)-3,3-dimethyl-6-(2-methylpyrimidin-5-yl)indolin-2-one]"
10,4470,"Cc1cncc(N2C(=O)C(C)(C)c3ccc(-c4ccnc(C)n4)cc32)n1 [Example 154, 3,3-dimethyl-1-(6-methylpyrazin-2-yl)-6-(2-methylpyrimidin-4-yl)indolin-2-one]"
11,300,"CCc1cncc(N2C(=O)C(C)(C)c3ccc(-c4cnc(C)nc4)cc32)c1 [Example 156, 1-(5-ethylpyridin-3-yl)-3,3-dimethyl-6-(2-methylpyrimidin-5-yl)indolin-2-one]"
